Results taken from patent publication US20220119446A1, “BIOMARKERS AND TREATMENT OF NEURONAL INJURY AND NEURODEGENERATION” (Board of Supervisons of Louisiana State University and …, priority 2018, published 2022).
“Also recorded” adds a separate entry of the source.

Columns and labels:
Wnt5a = experiment: Microarray of Wnt5a expression in 15-LOX-1 deficient ARPE-19 cells under uncompensated oxidative stress (UOS); format: cell-based, human; settings: UOS=600 μM H2O2 plus 10 ng/ml TNFα, 6 hours, UOS alone gives 2-fold increase
Procedure: Primary human RPE cultures can be from human eyecups, provided by the National Disease Research Interchange (NDRI), as described previously (Calandria et al. 2012). hRPE cells can be grown and maintained in high-glucose MEM (Life Technologies Corporation, Carlsbad, Calif.) supplemented with 10% FBS (Tissue Culture Biologicals, Inc., Long Beach, Calif.), 5% NCS, non-essential amino acids, Penicillin-Streptomycin (100 U/mL), human fibroblast growth factor (FGF) 10 ng/mL and incubated at 37° C. with a constant supply of 5% CO2. ARPE-19 cells, can be plated and grown in DMEM/F-12 containing 10% FBS and 1× penicillin/streptomycin at 37° C., 5% CO2, 99% relative humidity for 24 h. Silenced 15-LOX-1 cells, described in detail elsewhere (Calandria et al. 2009), are derived from ARPE-19 by stably silencing 15-LOX-1. 15-LOX-1 deficient cells can be maintained in the same medium as ARPE-19 with the addition of 500 μg/mL Geneticin (Life Technologies Corporation, Carlsbad, Calif.). […] Transfection efficiency can be assessed using an expression plasmid-carrying GFP ORF or by including a negative control siRNA conjugated with Alexa Fluor® 488 or 546 (QIAGEN, Hilden, Germany). siRNA efficiency can be assessed using SYBR green-based real-time PCR using the primers of Table 2 and the percentage of silencing achieved (FIG. 7). […]

FZD5 = experiment: SYBR green real-time PCR of Wnt5a receptors/co-receptors in RPE cells under UOS; format: cell-based, human
Procedure: Cell samples, total RNA was extracted by RNeasy Mini Kit (QIAGEN) following manufacturer's protocol. The purity and concentration of RNA were determined by NanoDrop ND-1000 Spectrophotometer (Thermo Fisher Scientific). cDNA first strand was obtained from one microgram of total RNA using iScript™ Reverse Transcription Supermix (Bio-Rad Laboratories, CA, USA). The resulting cDNA was used as template SYBR-green or Eva-green based real-time PCR quantification using SsoAdvance Universal Supermix (Bio-Rad Laboratories). Data was collected and analyzed using CFX Manager 3.0 software, the ΔΔCt method. Melting curve was produced for every run to assure a unique amplified product per primer set.

## CC/C=C\C[C@H](O)\C=C/C=C/C=C/[C@H](O)C/C=C\C/C=C\CCC(=O)O [NPD1, 10R,17S-dihydroxy-docosa-4Z,7Z,11E,13E,15Z,19Z-hexaenoic acid]
Wnt5a
  Wnt5a expression: brought down to below controls; also recorded: reversed
FZD5; ARPE-19 cells, UOS gives 3-fold increase (FIG. 1F)
  FZD5 expression: counteracted this effect
FZD5; hpRPE exposed to UOS, UOS gives 2-fold rise
  FZD5 mRNA: downregulated
FZD5; reduced under UOS
  ROR1 expression: re-established
